Reference: patent EP4559922A1, “ANTIHISTAMINE COMPOUND, PREPARATION METHOD THEREFOR AND USE THEREOF” (HC Synthetic Pharmaceutical Co., Ltd., priority 2022, dated 2024)
Values after ≈ are worked out from the molar mass of the structure shown.

Experiments:
histamine = test: Antagonism of histamine-induced contraction of isolated ileal smooth muscle of guinea pigs; conditions: 3 minutes after adding 0.05 mL compound following histamine; x±s, n = 8
Method: (§1) The guinea pig was knocked unconscious with a wooden stick, and the abdomen was immediately dissected to separate the ileum about 15 cm in length. The contents of the intestinal segment were flushed with Tyrode's solution and placed in Tyrode's solution at a constant temperature of 37°C for later use, and oxygen was supplied simultaneously. The experimental intestinal tract (1 cm in length) was cut and placed into 20 ml of Tyrode's solution at a constant temperature of 37°C with a continuous oxygen supply. One end of the intestine was fixed on the ventilation hook and the other end was connected to the muscle tone transducer and led to the computer interface. The muscle tone value of the ileal smooth muscle was recorded with a BL system. The experiment was carried out after the intestinal segment contraction became stable.
(§2) After the ileal peristalsis curve stabilized, the tone values before adding the compound were recorded, and then 0.05 mL of histamine was added. […] The operation was repeated 8 times. The antispasmodic percentage was calculated using the following equation. Antispasmodic percentage =; (Tone value after adding histamine−Tone value after adding subject compound)/(Tone value after adding histamine) × 100% [formula]

[1] = as above; conditions: relative to tone after adding histamine; x±s, n = 8; 3 min
Method: as §1, §2

[2] = tested on: histamine-induced asthma in guinea pigs; test: Antiasthmatic effect on histamine-induced asthma in guinea pigs (latency period); type: in vivo; conditions: 1 mg/kg oral gavage, sixty minutes after administration; histamine hydrochloride spray; capped at 8 minutes; X±s, n = 5
Method: The guinea pigs were placed in a polymethyl methacrylate bell jar and a histamine hydrochloride solution was sprayed ultrasonically (0.8 mg/mL) for 40 seconds. The time point at which the guinea pigs developed asthma was recorded. The time of convulsion and fall was taken as the latency period. Guinea pigs with a latency period exceeding 180 seconds were not selected. […] The guinea pigs were administered by oral gavage at a dose of 2 mL/kg·bw. Sixty minutes after the administration, the guinea pigs were placed in bell jars, and histamine hydrochloride solution was sprayed under the same conditions as in the previous selection. The latency period for the onset of asthma was recorded. […] The results were processed statistically.

[3] = Accelerated stability test; type: physicochemical; conditions: 40°C ± 2°C, relative humidity 75% ± 5%; for remaining at 730 h / remaining at 1460 h / remaining at 2190 h / remaining at 4380 h: storage 75% relative humidity, read-out: Content
[4] = tested on: isolated ileal smooth muscle of guinea pigs; test: Effect on muscle tone of isolated ileal smooth muscle of guinea pigs (no histamine added); conditions: X±s; for Smooth muscle tone After administration: 5 minutes after adding drug, n = 8; for Antispasmodic percentage: relative to tone before adding compound, n = 8, 5 min, 5 min
Method: as §1
After the ileum contraction curve stabilized, the tone values before adding the drug were recorded, then the drug or DMSO was added, and the average tone value of the ileum contraction curve at that point was recorded 5 minutes later. The operation was repeated 8 times. The antispasmodic percentage was calculated according to the following formula. Antispasmodic percentage =; (Tone value before adding subject compound−Tone value after adding subject compound)/(Tone value before adding subject compound); × 100% [formula]

[5] = Solubility of the compounds in water, methanol and isopropanol; type: physicochemical; conditions: for Solubility in Water: solvent water; for Solubility in Isopropanol: solvent isopropanol
Method: The solubility in water, methanol, and isopropanol of the compounds of the present disclosure and the comparative compounds were measured separately.

In the case of `O=C1Cc2ccccc2C(=C2CCN(CCCCOP(=O)(O)O)CC2)c2ccsc21` [Compound IV-4], the “Smooth muscle tone After administration” value (histamine) is reported as 1.19 ± 0.21 g, the Antispasmodic percentage [1] is reported as 65.40±19.07% and the Post-administration latency period [2] is reported as 376.89 ± 51.43 s. The Content ([3]; Month 0) was 99.7%, the Description ([3]; Month 0) was “White powder” and the Related substances ([3]; Month 0) was 0.03%. The Description ([3]; Month 1) was “White powder”, the Related substances ([3]; Month 1) was 0.05% and the Description ([3]; Month 2) was “White powder”. For the same molecule, the Related substances ([3]; Month 2) was 0.09%, the Description ([3]; Month 3) was “White powder” and the Related substances ([3]; Month 3) was 0.12%. For the same molecule, the Description ([3]; Month 6) was “White powder”, the Related substances ([3]; Month 6) was 0.25% and the remaining at 730 h ([3]; Month 1) was 99.7%. It also gave a remaining at 1460 h ([3]; Month 2) of 99.6%, a remaining at 2190 h ([3]; Month 3) of 99.6% and a remaining at 4380 h ([3]; Month 6) of 99.4%. For the same molecule, the “Smooth muscle tone After administration” value [4] was 1.18 ± 0.26 g and the Antispasmodic percentage [4] was 30.59±19.00%.

With `O=C1Cc2ccccc2C(=C2CCN(COP(=O)(O)O)CC2)c2ccsc21` [Compound IV-1] the “Smooth muscle tone After administration” value (histamine) was 1.18 ± 0.24 g, the Antispasmodic percentage [1] was 66.28±18.26% and the Post-administration latency period [2] was 368.83 ± 49.03 s. For the same molecule, the Content ([3]; Month 0) was 99.7%, the Description ([3]; Month 0) was “White powder” and the Related substances ([3]; Month 0) was 0.03%. The Description ([3]; Month 1) was “White powder”, the Related substances ([3]; Month 1) was 0.05% and the Description ([3]; Month 2) was “White powder”. For the same molecule, the Related substances ([3]; Month 2) was 0.09%, the Description ([3]; Month 3) was “White powder” and the Related substances ([3]; Month 3) was 0.12%. For the same molecule, the Description ([3]; Month 6) was “White powder”, the Related substances ([3]; Month 6) was 0.24% and the remaining at 730 h ([3]; Month 1) was 99.7%. For the same molecule, the remaining at 1460 h ([3]; Month 2) was 99.6%, the remaining at 2190 h ([3]; Month 3) was 99.6% and the remaining at 4380 h ([3]; Month 6) was 99.4%. The “Smooth muscle tone After administration” value [4] was 1.14 ± 0.31 g and the Antispasmodic percentage [4] was 33.72±18.32%.

With `CN1CCC(=C2c3ccccc3CC(=O)c3sccc32)CC1` [Ketotifen] the “Solubility in Water” value [5] was “Practically insoluble”.

In the case of `O=C1Cc2ccccc2C(=C2CCN(CCCOP(=O)(O)O)CC2)c2ccsc21` [Compound IV-3], the Antispasmodic percentage [1] is reported as 64.91±18.92%, the Post-administration latency period [2] is reported as 371.38 ± 49.10 s and the “Solubility in Isopropanol” value [5] is reported as 1 mg/mL (≈ 2.31 mM). For the same molecule, the Content ([3]; Month 0) was 99.7%, the Description ([3]; Month 0) was “White powder” and the Related substances ([3]; Month 0) was 0.03%. For the same molecule, the Description ([3]; Month 1) was “White powder”, the Related substances ([3]; Month 1) was 0.05% and the Content ([3]; Month 1, 43800 min) was 99.7%. The Description ([3]; Month 2) was “White powder”, the Related substances ([3]; Month 2) was 0.09% and the Content ([3]; Month 2, 87600 min) was 99.6%. The Description ([3]; Month 3) was “White powder”, the Related substances ([3]; Month 3) was 0.12% and the Content ([3]; Month 3, 131400 min) was 99.6%. The Description ([3]; Month 6) was “White powder”, the Related substances ([3]; Month 6) was 0.25% and the Content ([3]; Month 6, 262800 min) was 99.4%. For the same molecule, the Antispasmodic percentage [4] was 30.95±19.69%.

With `O=C1Cc2ccccc2C(=C2CCN(CCCCCOCOP(=O)(O)O)CC2)c2ccsc21` [Compound IV-9] the “Smooth muscle tone After administration” value (histamine) was 1.15 ± 0.26 g, the Antispasmodic percentage [1] was 66.57±18.66% and the Post-administration latency period [2] was 369.11 ± 49.40 s. For the same molecule, the “Smooth muscle tone After administration” value [4] was 1.16 ± 0.28 g and the Antispasmodic percentage [4] was 32.95±19.04%.

With `O=C1Cc2ccccc2C(=C2CCN(CCCOP(=O)(O)O)CC2)c2ccsc21` [Compound III-3] the Antispasmodic percentage [1] was 66.66±15.49%, the Post-administration latency period [2] was 368.01 ± 50.67 s and the “Solubility in Isopropanol” value [5] was 24 mg/mL (≈ 55.4 mM). The “Solubility in Water” value [5] was 20 mg/mL (≈ 46.1 mM), the Content ([3]; Month 0) was 99.7% and the Description ([3]; Month 0) was “White powder”. For the same molecule, the Related substances ([3]; Month 0) was 0.03%, the Description ([3]; Month 1) was “White powder” and the Related substances ([3]; Month 1) was 0.05%. The Description ([3]; Month 2) was “White powder”, the Related substances ([3]; Month 2) was 0.10% and the Description ([3]; Month 3) was “White powder”. The Related substances ([3]; Month 3) was 0.15%, the Description ([3]; Month 6) was “White powder” and the Related substances ([3]; Month 6) was 0.34%. It also gave a remaining at 730 h ([3]; Month 1) of 99.7%, a remaining at 1460 h ([3]; Month 2) of 99.6% and a remaining at 2190 h ([3]; Month 3) of 99.5%. For the same molecule, the remaining at 4380 h ([3]; Month 6) was 99.2% and the Antispasmodic percentage [4] was 30.23±17.82%.
